Results on four compounds are retold here after ChEMBL document CHEMBL3271952, “Synthesis and pharmacological properties of the N-terminal decapeptide of the vasoactive intestinal peptide (VIP)” (J Med Chem, 1977).

Active and inactive are the calls of the source. The rule behind the calls is not given here. Peptide text beside a SMILES is read from it.

In one assay the test system is Canis familiaris. In words: Vasodilatory activity in anesthetized dog assessed as effect on blood flow. The class given is functional, organism-based. The following applies: Canis lupus familiaris.
The next assay deals with Stomach. Description: Vasodilatory activity in rat stomach smooth muscle assessed as muscle relaxation. The class given is functional, tissue-based.
The species named for a further assay is Cavia porcellus. Description: Vasodilatory activity in guinea pig trachea assessed as muscle relaxation. The assay is classed as functional, tissue-based.

On to H-RKQMAVKKYLNSILN-NH2, for which the outcome in the assay with Canis familiaris was inactive.

Take `COC(=O)[C@H](Cc1ccc(O)cc1)NC(=O)[C@H](CC(N)=O)NC(=O)[C@H](CC(=O)O)NC(=O)[C@@H](NC(=O)[C@H](Cc1ccccc1)NC(=O)[C@@H](NC(=O)[C@H](C)NC(=O)[C@H](CC(=O)O)NC(=O)[C@H](CO)NC(=O)[C@@H](N)Cc1cnc[nH]1)C(C)C)[C@@H](C)O` (H-HSDAVFTDNY-OMe): the outcome with Stomach and in the assay listed under Cavia porcellus was Active. For H-AVKKYLNSILN-NH2, the outcome in the assay with Canis familiaris, with Stomach and in the assay filed under Cavia porcellus was Active. For H-KQMAVKKYLNSILN-NH2, in the assay with Canis familiaris, the outcome was Active.
